Five molecules from patent publication US12486216B2, “Processes for preparing nitrosylated propanediols, compositions comprising the same, and medical uses thereof” (ATTGENO AB, priority 2018, dated 2025) can be followed below.

The nature of series [1]: Stability of non-aqueous mixtures of the nitrites in 1,2-propanediol (GC). The class given is physicochemical. As for the experimental part:
Three different concentrations of 1-(nitrosooxy)-propan-2-ol and 2-(nitrosooxy)-propan-1-ol in 1,2-propanediol were prepared and stored in both a refrigerator (5° C.) and freezer (−20° C.). Aliquots of each solution were taken periodically and analysed by GC to determine the concentration of 1-(nitrosooxy)-propan-2-ol and 2-(nitrosooxy)-propan-1-ol.
The results of the GC analysis are shown in the table below (column: Rxi-5Sil MS, 20 m×0.18 mm, […]; carrier: He; Inlet: 250° C., split ratio 100:1; constant flow: 1.0 mL/min; oven temperature profile: 40° C. (3 min), 10° C./min, 80° C. (0 min), 30° C./min, 250° C. (3 min); FID: 300° C., H2 flow 30 mL/min, air flow 400 mL/min, make-up flow (N2) 25 mL/min; internal standard: 1,1,1,3,5,5,5-heptamethyl trisiloxane): […]

Series [2] has as its system anesthetised and mechanically ventilated pigs with U46619-induced pulmonary hypertension. The series is described as follows: In vivo study in pigs with U46619-induced pulmonary hypertension, PDNO infusion vs inhaled NO. As to conditions: for mean pulmonary arterial pressure / pulmonary vascular resistance: median (interquartile range).
For series [3], the system named is anesthetised pigs. The series is described as follows: Pharmacological investigation of 1,2-PDNO—R, 1,2-PDNO—S and 1,3-PDNO in anesthetised pigs. As to conditions: pH approximately 8. The series is classed as in vivo, pig. An excerpt:
Prior to experimentation, ethical approval was received from Linköping's regional animal ethics committee (Linköping, Sweden; approval number 953). In brief, 2 male and female pigs (a crossbreed between Swedish country breed, Hampshire and Yorkshire; 3-4 months old; 24-26 kg) were premedicated with azaperone at the farm and transported to the laboratory. At the laboratory, anaesthesia was induced with a mixture of tiletamine, zolazepam and azaperone (intramuscular injection). Propofol was given in a peripheral venous catheter in an ear vein, if needed. Bolus doses of atropine and cefuroxime were administered intravenously. The animals were endotracheally intubated and mechanically ventilated (5 cm H2O in positive end-expiratory pressure, minute ventilation was adjusted to normoventilation). General anaesthesia was maintained with propofol and fentanyl via continuous intravenous infusions, and additional bolus doses were given if needed. Ringer's acetate and glucose solutions were continuously administered intravenously to substitute for fluid loss. Heparin was given as an intravenous bolus dose after the surgical instrumentation. After the experiments the animals were killed in general anaesthesia with a propofol injection followed by a rapid intravenous injection of potassium chloride (40 mmol), and asystolia was confirmed.
The animals were instrumented with an arterial catheter in the right carotid artery for measurement of systemic arterial blood pressure and heart rate. A sheath was placed in the right external jugular vein for introduction of a pulmonary-arterial catheter. This catheter was used for continuous measurement of pulmonary arterial blood pressure, semi-continuous cardiac output and intermittent pulmonary wedge pressure. […] Respiratory gases, pressures and volumes were measured at the endotracheal tube. Respiratory and hemodynamic variables were measured by a Datex AS/3 (Helsinki, Finland) and data were collected by a computerised system (MP100 or MP150/Acknowledge 3.9.1, BIOPAC systems, Goleta, CA, USA). […]

Where [4] appears, read: Freezer (−20° C.), 10 days, Low conc.
Where [5] appears, read: Freezer (−20° C.), 10 days, Medium conc.
Setting [6] is: Freezer (−20° C.), 14 days, High conc.
The mark [7] stands for this setting: Freezer (−20° C.), 27 days, Low conc.
The mark [8] stands for this setting: Freezer (−20° C.), 27 days, Medium conc.
Where [9] appears, read: Freezer (−20° C.), 28 days, High conc.
The mark [10] stands for this setting: Freezer (−20° C.), 56 days, High conc.
Where [11] appears, read: Freezer (−20° C.), 64 days, Low conc.
[12] abbreviates: Freezer (−20° C.), 64 days, Medium conc.
The mark [13] stands for this setting: Freezer (−20° C.), 84 days, High conc.
Setting [14] is: Freezer (−20° C.), 84 days, Low conc.
Where [15] appears, read: Freezer (−20° C.), 84 days, Medium conc.
Setting [16] is: Freezer (−20° C.), Start, High conc.
Setting [17] is: Freezer (−20° C.), Start, Low conc.
Setting [18] is: Freezer (−20° C.), Start, Medium conc.
[19] abbreviates: Refrigerator (5° C.), 10 days, Low conc.
The mark [20] stands for this setting: Refrigerator (5° C.), 10 days, Medium conc.
The mark [21] stands for this setting: Refrigerator (5° C.), 14 days, High conc.
The mark [22] stands for this setting: Refrigerator (5° C.), 27 days, Low conc.
The mark [23] stands for this setting: Refrigerator (5° C.), 27 days, Medium conc.
Where [24] appears, read: Refrigerator (5° C.), 28 days, High conc.
[25] abbreviates: Refrigerator (5° C.), 56 days, High conc.
Setting [26] is: Refrigerator (5° C.), 64 days, Low conc.
[27] abbreviates: Refrigerator (5° C.), 64 days, Medium conc.
[28] abbreviates: Refrigerator (5° C.), 84 days, High conc.
The mark [29] stands for this setting: Refrigerator (5° C.), 84 days, Low conc.
Setting [30] is: Refrigerator (5° C.), 84 days, Medium conc.
Setting [31] is: Refrigerator (5° C.), Start, High conc.
[32] abbreviates: Refrigerator (5° C.), Start, Low conc.
The mark [33] stands for this setting: Refrigerator (5° C.), Start, Medium conc.
Where [34] appears, read: PDNO iv 15-60 nmol kg^−1 min^−1 or inhaled NO 5-40 ppm, during U46619.
The mark [35] stands for this setting: PDNO or inhaled NO during U46619, data not shown.
Where [36] appears, read: 10-15 min iv infusion (1,2-PDNO—R and —S 43, 1,3-PDNO 30 nmol kg^−1 min^−1) into sodium bicarbonate carrier.
The mark [37] stands for this setting: U46619 infusion alone, data not shown.

As to `CC(O)CON=O` (stereo not shown) [1-Nitrite, 1-(nitrosooxy)-propan-2-ol], the Concentration is listed as 0.08 % w/w in series [1] (setting [4]); 0.81 % w/w in series [1] (setting [5]); 3.76 % w/w in series [1] (setting [6]); 0.07 % w/w in series [1] (setting [7]); 0.74 % w/w in series [1] (setting [8]); 3.72 % w/w in series [1] (setting [9]). Further, the Concentration stood at 3.55 % w/w in series [1] (setting [10]); 0.07 % w/w in series [1] (setting [11]); 0.74 % w/w in series [1] (setting [12]); 3.50 % w/w in series [1] (setting [13]); 0.08 % w/w in series [1] (setting [14]); 0.78 % w/w in series [1] (setting [15]). The Concentration in series [1] (setting [16]) came to 3.75 % w/w; in series [1] (setting [17]), 0.08 % w/w; in series [1] (setting [18]), 0.81 % w/w; in series [1] (setting [19]), 0.08 % w/w; in series [1] (setting [20]) it was 0.86 % w/w; in series [1] (setting [21]), 3.72 % w/w. Further, the Concentration in series [1] (setting [22]) is listed as 0.09 % w/w; in series [1] (setting [23]), 0.81 % w/w; in series [1] (setting [24]), 3.67 % w/w; in series [1] (setting [25]), 3.47 % w/w; in series [1] (setting [26]), 0.07 % w/w; in series [1] (setting [27]), 0.73 % w/w. Further, the Concentration in series [1] (setting [28]) is recorded as 3.33 % w/w; in series [1] (setting [29]), 0.07 % w/w; in series [1] (setting [30]), 0.77 % w/w; in series [1] (setting [31]), 3.75 % w/w; in series [1] (setting [32]), 0.08 % w/w; in series [1] (setting [33]), 0.81 % w/w.

Turning to nitric oxide [inhaled NO], the “Effect on pulmonary arterial pressure” value in series [2] (PDNO iv 15-60 nmol kg^−1 min^−1 in sodium bicarbonate carrier or inhaled NO 5-40 ppm, during U46619) was “significantly reduced”. Also, in series [2] (PDNO iv 15-60 nmol kg^−1 min^−1 or inhaled NO 5-40 ppm, arterial blood), the “Effect on methemoglobin concentration” value is listed as “No drug significantly affected”. For the same molecule, in series [2] (setting [34]), the “Effect on mean arterial pressure” value is listed as “No drug significantly affected”, the “Effect on pulmonary vascular resistance” value is on record as “significantly reduced” and the “Effect on systemic vascular resistance” value is “No drug significantly affected”. For the same molecule, in series [2] (setting [35]), the “Effect on arterial partial pressure of oxygen” value was “increased this variable towards normal” and the “Effect on cardiac output” value is “no drug significantly changed”. The “Pulmonary-to-systemic vascular resistances ratio compared to the PDNO group” value in series [2] (at the highest doses, data not shown) was “slightly lower”. Besides, the “Effect on pulmonary-to-systemic vascular resistances ratio” value in series [2] (during U46619, data not shown) is “significantly decreased”. Also, the “Trend in methemoglobin concentration” value in series [2] (inhaled NO group, associated to dose of delivered NO) is “tendency for an increase”.

Consider `CC(CO)ON=O` (stereo not shown) [2-Nitrite, 2-(nitrosooxy)-propan-1-ol], for which the Concentration is listed as 0.06 % w/w in series [1] (setting [4]); 0.63 % w/w in series [1] (setting [5]); 2.89 % w/w in series [1] (setting [6]); 0.06 % w/w in series [1] (setting [7]); 0.57 % w/w in series [1] (setting [8]); 2.93 % w/w in series [1] (setting [9]). The Concentration in series [1] (setting [10]) is reported as 2.74 % w/w; in series [1] (setting [11]), 0.06 % w/w; in series [1] (setting [12]), 0.58 % w/w; in series [1] (setting [13]), 2.71 % w/w; in series [1] (setting [14]), 0.06 % w/w; in series [1] (setting [15]), 0.62 % w/w. The Concentration in series [1] (setting [16]) stood at 2.94 % w/w; in series [1] (setting [17]), 0.06 % w/w; in series [1] (setting [18]) it was 0.61 % w/w; in series [1] (setting [19]), 0.06 % w/w; in series [1] (setting [20]), 0.67 % w/w; in series [1] (setting [21]), 2.91 % w/w. Further, the Concentration was found to be 0.07 % w/w in series [1] (setting [22]); 0.63 % w/w in series [1] (setting [23]); 2.90 % w/w in series [1] (setting [24]); 2.69 % w/w in series [1] (setting [25]); 0.06 % w/w in series [1] (setting [26]); 0.57 % w/w in series [1] (setting [27]). Moreover, the Concentration in series [1] (setting [28]) amounted to 2.59 % w/w; in series [1] (setting [29]), 0.06 % w/w; in series [1] (setting [30]) it was 0.60 % w/w; in series [1] (setting [31]), 2.94 % w/w; in series [1] (setting [32]), 0.06 % w/w; in series [1] (setting [33]), 0.61 % w/w.

Consider `O=NOCCCO` [1,3-PDNO, 1-(nitrosooxy)propan-3-ol], for which, in series [3] (setting [36]), the “Effect on mean pulmonary arterial pressure” value was “decreased” and the “Effect on mean systemic arterial pressure” value is listed as “decreased”. The Vasodilation result in series [3] (10-15 min iv infusion into sodium bicarbonate carrier) was “caused systemic and pulmonary vasodilation”.

As to `CCCCCC(O)C=CC1C2CC(CO2)C1CC=CCCCC(=O)O` (stereo not drawn) [U46619, 9,11-dideoxy-9α, 11α-methanoepoxy PGF2α], the “Effect on arterial partial pressure of oxygen” value in series [2] (setting [37]) was “slightly decreased”. The “Effect on cardiac output” value in series [2] (setting [37]) is “slightly decreased”. Also, the “mean pulmonary arterial pressure” value in series [2] (during iv U46619 60-150 ng kg^−1 min^−1, before NO inhalation) was 43 (37-48) mmHg; in series [2] (during iv U46619 60-150 ng kg^−1 min^−1, before PDNO infusion) it was 43 (41-46) mmHg. Also, the pulmonary vascular resistance in series [2] (during iv U46619, before NO inhalation) is 8.3 (6.7-11.7) mmHg min l^−1; in series [2] (during iv U46619, before PDNO infusion), 9.8 (7.7-12.5) mmHg min l^−1.
